Assay results reported in patent US7786141B2 (Vertex Pharmaceuticals Incorporated, priority 2004, dated 2010).

Tests used:
M1 muscarinic receptor = target: T1, M1 muscarinic receptor (Homo sapiens, UniProt P11229); experiment: Functional mobilization of intracellular calcium (FLIPR) in M1-CHO cells; format: cell-based; settings: M1 receptor, calcium mobilization; for Emax: read-out: M1 Efficacy
T1 construct: expressed in transfected cells; host or cells: CHO (M1-CHO)
T1 sequence (P11229 1-460): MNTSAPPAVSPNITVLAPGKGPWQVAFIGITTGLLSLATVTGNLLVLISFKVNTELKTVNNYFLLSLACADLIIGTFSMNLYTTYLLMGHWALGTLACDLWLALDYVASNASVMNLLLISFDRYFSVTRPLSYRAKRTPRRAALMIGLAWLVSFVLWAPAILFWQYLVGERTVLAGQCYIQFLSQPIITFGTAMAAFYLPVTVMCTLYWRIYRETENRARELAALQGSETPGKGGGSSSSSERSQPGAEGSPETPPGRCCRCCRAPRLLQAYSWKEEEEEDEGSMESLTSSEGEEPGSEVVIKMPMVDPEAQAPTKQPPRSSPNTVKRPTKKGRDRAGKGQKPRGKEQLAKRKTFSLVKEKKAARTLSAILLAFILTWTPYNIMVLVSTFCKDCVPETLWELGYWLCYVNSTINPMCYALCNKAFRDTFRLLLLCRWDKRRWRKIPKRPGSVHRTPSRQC
Outline: (§1)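 Intracellular calcium rise is measured by FLIPR fluorescence over 60 sec in CHO cells carrying human M1 or M4 receptors. Compounds are tested alone as agonists, or pre-incubated 15 min (or co-applied) ahead of carbachol at its EC80 to detect inhibition.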

M4 muscarinic receptor = target: T2, M4 muscarinic receptor (Homo sapiens, UniProt P08173); experiment: Functional mobilization of intracellular calcium (FLIPR) in M4-CHO cells; format: cell-based; settings: M4 receptor, calcium mobilization; for Emax: read-out: M4 Efficacy
T2 construct: expressed in transfected cells; host or cells: CHO (M4-CHO)
T2 sequence (P08173 1-479): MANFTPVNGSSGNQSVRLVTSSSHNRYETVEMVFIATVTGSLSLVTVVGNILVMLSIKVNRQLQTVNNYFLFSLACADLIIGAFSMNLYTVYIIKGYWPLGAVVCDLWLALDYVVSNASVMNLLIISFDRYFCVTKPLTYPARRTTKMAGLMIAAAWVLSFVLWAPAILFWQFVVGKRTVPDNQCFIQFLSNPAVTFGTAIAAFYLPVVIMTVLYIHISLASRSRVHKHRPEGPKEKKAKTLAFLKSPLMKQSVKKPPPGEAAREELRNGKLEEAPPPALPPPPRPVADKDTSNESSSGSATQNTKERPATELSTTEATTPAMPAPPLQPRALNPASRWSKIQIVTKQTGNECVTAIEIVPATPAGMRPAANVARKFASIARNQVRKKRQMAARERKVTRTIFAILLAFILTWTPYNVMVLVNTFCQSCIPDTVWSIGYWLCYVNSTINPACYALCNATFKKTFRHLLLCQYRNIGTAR
Outline: as §1

Row | Compound | M1 Activity (M1 muscarinic receptor) | Emax (M1 muscarinic receptor) [%] | M4 Activity (M4 muscarinic receptor) | Emax (M4 muscarinic receptor) [%]
1 | CC(=O)N1CC2(CCN(C3CCN(C(=O)OC(C)C)CC3)CC2)c2cc(F)ccc21 [compound 269] | xxx (activity was measured to be less than 0.1 μM) | 65 to 85 | xxx (activity was measured to be less than 0.1 μM) | > 85
2 | CCCCC(=O)N1CC2(CCN(C3CCN(C(=O)OCC)CC3)CC2)c2cc(F)ccc21 [compound 270] | xxx (activity was measured to be less than 0.1 μM) | 65 to 85 | xxx (activity was measured to be less than 0.1 μM) | > 85
3 | O=C(OC1CCCC1)N1C2CCC1CC(N1CCC3(CC1)C(=O)Nc1ccccc13)C2 (stereo not shown) [compound 271] | xxx (activity was measured to be less than 0.1 μM) | 65 to 85 | xxx (activity was measured to be less than 0.1 μM) | < 65
4 | c1ccc2c(c1)NCC21CCN(C2CC3CCC2C3)CC1 (stereo not shown) [compound 272] | xxx (activity was measured to be less than 0.1 μM) | 65 to 85 | xxx (activity was measured to be less than 0.1 μM) | > 85
5 | CC(=O)N[C@H]1CC2(CCN(C3CCC(c4ccccc4)CC3)CC2)c2ccccc21 (stereo partly shown) [compound 273] | xxx (activity was measured to be less than 0.1 μM) | > 85 | xx (activity was measured to be between 0.1 μM and 1.0 μM) | > 85
6 | CC(=O)N[C@H]1CC2(CCN([C@H]3C[C@@H]4CC[C@@H]3C4)CC2)c2ccccc21 [compound 274] | xxx (activity was measured to be less than 0.1 μM) | 65 to 85 | x (activity was measured to be greater than 1.0 μM) | > 85
7 | CCOC(=O)N[C@@H]1CC2(CCN(C[C@H]3C[C@H]4CC[C@H]3C4)CC2)c2ccccc21 [compound 275] | xxx (activity was measured to be less than 0.1 μM) | 65 to 85 | xx (activity was measured to be between 0.1 μM and 1.0 μM) | > 85
8 | Clc1ccc2c(c1)C1(CCO2)CCN(C2CCCCC2)CC1 [compound 276] | xxx (activity was measured to be less than 0.1 μM) | 65 to 85 | x (activity was measured to be greater than 1.0 μM) | 65 to 85
9 | CCOC(=O)N1CCC(N2CCC3(CC2)CN(C(C)=O)c2ccc(-c4ccccc4C#N)cc23)CC1 [compound 277] | xxx (activity was measured to be less than 0.1 μM) | 65 to 85 | x (activity was measured to be greater than 1.0 μM) | < 65
10 | CCOC(=O)N1C2CCC1CC(N1CCC3(CC1)c1ccccc1C(=O)C3(C)C)C2 (stereo not shown) [compound 278] | xx (activity was measured to be between 0.1 μM and 1.0 μM) | 65 to 85 | xx (activity was measured to be between 0.1 μM and 1.0 μM) | 65 to 85
11 | CC(=O)N1CC2(CCN(C3CCN(C(=O)O[C@@H]4CCOC4)CC3)CC2)c2cc(C)ccc21 [compound 279] | xx (activity was measured to be between 0.1 μM and 1.0 μM) | < 65 | xx (activity was measured to be between 0.1 μM and 1.0 μM) | < 65
12 | CC(=O)N[C@H]1CC2(CCN(C3CCC(C)CC3)CC2)c2ccccc21 (stereo partly shown) [compound 280] | x (activity was measured to be greater than 1.0 μM) | 65 to 85 | x (activity was measured to be greater than 1.0 μM) | 65 to 85
13 | CCOC(=O)N1CCC(N2CCC3(CC2)CN(C(=O)C2CCCCC2)c2ccc(F)cc23)CC1 [compound 281] | xx (activity was measured to be between 0.1 μM and 1.0 μM) | < 65 | xx (activity was measured to be between 0.1 μM and 1.0 μM) | 65 to 85
14 | CCOC(=O)N1CCC(N2CCC3(CC2)CN(C(=O)C(C)(C)C)c2ccc(F)cc23)CC1 [compound 282] | xxx (activity was measured to be less than 0.1 μM) | < 65 | xx (activity was measured to be between 0.1 μM and 1.0 μM) | 65 to 85
15 | CCCOC(=O)N1C2CCC1CC(N1CCC3(CC1)COc1ccc(F)cc13)C2 (stereo not shown) [compound 283] | xx (activity was measured to be between 0.1 μM and 1.0 μM) | 65 to 85 | x (activity was measured to be greater than 1.0 μM) | 65 to 85
16 | COCCOC(=O)N1CCC(N2CCC3(CC2)CN(C(C)=O)c2ccc(F)cc23)CC1 [compound 284] | xx (activity was measured to be between 0.1 μM and 1.0 μM) | < 65 | xx (activity was measured to be between 0.1 μM and 1.0 μM) | < 65
17 | CC(C)OC(=O)N1C2CCC1CC(N1CCC3(CCc4ccccc43)CC1)C2 (stereo not shown) [compound 285] | xx (activity was measured to be between 0.1 μM and 1.0 μM) | < 65 | x (activity was measured to be greater than 1.0 μM) | < 65
18 | CCCCOC(=O)N1C2CCC1CC(N1CCC3(CC1)COc1ccc(F)cc13)C2 (stereo not shown) [compound 286] | xx (activity was measured to be between 0.1 μM and 1.0 μM) | < 65 | x (activity was measured to be greater than 1.0 μM) | < 65
19 | COC(=O)N1CC2(CCN(C3CC4CCC(C3)N4C(=O)OCC(C)C)CC2)c2cc(F)ccc21 (stereo not shown) [compound 287] | xx (activity was measured to be between 0.1 μM and 1.0 μM) | < 65 | x (activity was measured to be greater than 1.0 μM) | < 65
20 | Clc1ccc2c(c1)C1(CCO2)CCN(CC2CCOCC2)CC1 [compound 288] | x (activity was measured to be greater than 1.0 μM) | < 65 | x (activity was measured to be greater than 1.0 μM) | < 65
21 | CC(C)NC(=O)N1C2CCC1CC(N1CCC3(CC1)COc1ccc(F)cc13)C2 (stereo not shown) [compound 289] | xxx (activity was measured to be less than 0.1 μM) | < 65 | x (activity was measured to be greater than 1.0 μM) | < 65
22 | CCOC(=O)N1CCC(N2CCC3(CC2)CN(C(=O)N2CCOCC2)c2ccc(F)cc23)CC1 [compound 290] | xxx (activity was measured to be less than 0.1 μM) | < 65 | x (activity was measured to be greater than 1.0 μM) | < 65
23 | CC(=O)NC1CC2(CCN(C3CC4CCC3C4)CC2)c2ccccc21 (stereo not shown) [compound 291] | xx (activity was measured to be between 0.1 μM and 1.0 μM) | 65 to 85 | x (activity was measured to be greater than 1.0 μM) | 65 to 85
24 | Cc1ccc2c(c1)C1(CCN(C3CC4CCC3C4)CC1)CN2C(=O)c1ccno1 (stereo not shown) [compound 292] | xx (activity was measured to be between 0.1 μM and 1.0 μM) | 65 to 85 | x (activity was measured to be greater than 1.0 μM) | 65 to 85
25 | COCCOC(=O)N1CCC(N2CCC3(CC2)CN(C(C)=O)c2ccc(C)cc23)CC1 [compound 293] | xx (activity was measured to be between 0.1 μM and 1.0 μM) | > 85 | xxx (activity was measured to be less than 0.1 μM) | > 85
